The results in this text go back to patent US12458021B2, “Microbiocidal derivatives” (SYNGENTA CROP PROTECTION AG, priority 2019, dated 2025).

Common to all, as to format: cell-based
Experiment [1] concerns Monographella nivalis (Microdochium nivale). Put plainly: Monographella nivalis (Microdochium nivale) / liquid culture (foot rot cereals). The following applies: PDB potato dextrose broth, 24° C., 4-5 days after application, read-out: control of Monographella nivalis (inhibition of growth, photometric). As for the experimental part: Example B7: Monographella nivalis (Microdochium nivale)/Liquid Culture (Foot Rot Cereals) Conidia of the fungus from cryogenic storage are directly mixed into nutrient broth (PDB potato dextrose broth). After placing a (DMSO) solution of test compound into a microtiter plate (96-well format), the nutrient broth containing the fungal spores is added. The test plates are incubated at 24° C. and the inhibition of growth is determined photometrically 4-5 days after application. […] […]-190.

Experiment [2] concerns Glomerella lagenarium (Colletotrichum lagenarium). Put plainly: Glomerella lagenarium (Colletotrichum lagenarium) / liquid culture (anthracnose). The settings on record: Colletotrichum orbiculare, PDB potato dextrose broth, 24° C., 3-4 days after application, read-out: control of Glomerella lagenarium (inhibition of growth, photometric). As for the experimental part: Example B3: Glomerella lagenarium (Colletotrichum lagenarium)/Liquid Culture (Anthracnose) Conidia of the fungus from cryogenic storage are directly mixed into nutrient broth (PDB potato dextrose broth). After placing a (DMSO) solution of test compound into a microtiter plate (96-well format), the nutrient broth containing the fungal spores is added. The test plates are incubated at 24° C. and the inhibition of growth is measured photometrically 3-4 days after application. […] […]-191.

Experiment [3] deals with Mycosphaerella graminicola (Septoria tritici). The experiment can be described thus: Mycosphaerella graminicola (Septoria tritici) / liquid culture (Septoria blotch). The following applies: Zymoseptoria tritici, PDB potato dextrose broth, 24° C., 4-5 days after application, read-out: control of Mycosphaerella graminicola (inhibition of growth, photometric). As for the experimental part: Example B15: Mycosphaerella graminicola (Septoria tritici)/Liquid Culture (Septoria Blotch) Conidia of the fungus from cryogenic storage are directly mixed into nutrient broth (PDB potato dextrose broth). After placing a (DMSO) solution of test compound into a microtiter plate (96-well format), the nutrient broth containing the fungal spores is added. The test plates are incubated at 24° C. and the inhibition of growth is determined photometrically 4-5 days after application. […] […]-191.

The inhibition is the percentage by which the read-out fell short of the control.

Turning to `COc1ccc(Nc2nccs2)nc1C(=O)NC1CCC1(C)C` (centres unmarked) [Compound P-5, N-(2,2-dimethylcyclobutyl)-3-methoxy-6-(thiazol-2-ylamino)pyridine-2-carboxamide], in experiment [1], the inhibition at 20 ppm was at least 80%.
Still for that read-out and setting: the same measure for `CC1(C)CCC1NC(=O)c1nc(Nc2cncc(F)c2)ccc1O` (centres unmarked) [Compound P-12, N-(2,2-dimethylcyclobutyl)-6-[(5-fluoro-3-pyridyl)amino]-3-hydroxy-pyridine-2-carboxamide]: at least 80%.
For `CC1(C)CCC1NC(=O)c1nc(Nc2ccc(F)nc2)ccc1O` (centres unmarked) [Compound P-13, N-(2,2-dimethylcyclobutyl)-6-[(6-fluoro-3-pyridyl)amino]-3-hydroxy-pyridine-2-carboxamide], the inhibition at 20 ppm in experiment [2] and in experiment [1] was at least 80% each time.
Regarding `CC1(C)CCC1NC(=O)c1nc(Nc2ccnc(Cl)c2)ccc1O` (centres unmarked) [Compound P-14, 6-[(2-chloro-4-pyridyl)amino]-N-(2,2-dimethylcyclobutyl)-3-hydroxy-pyridine-2-carboxamide], the inhibition at 20 ppm in experiment [2] and in experiment [1] was at least 80% each time.
Turning to `CC1(C)CCC1NC(=O)c1nc(Nc2cncnc2)ccc1O` (centres unmarked) [Compound P-15, N-(2,2-dimethylcyclobutyl)-3-hydroxy-6-(pyrimidin-5-ylamino)pyridine-2-carboxamide], the inhibition at 20 ppm in experiment [1] is at least 80%.
Same read-out and setting: the same measure for `CC1(C)CCC1NC(=O)c1nc(Nc2ccc3c(c2)OCO3)ccc1O` (centres unmarked) [Compound P-17, 6-(1,3-benzodioxo1-5-ylamino)-N-(2,2-dimethylcyclobutyl)-3-hydroxy-pyridine-2-carboxamide]: at least 80%.
On to `COCC(=O)Oc1ccc(N(C(=O)COC)c2cc(F)cc(F)c2)nc1C(=O)NC1CCC1(C)C` (centres unmarked) [Compound P-24, [6-(3,5-difluoro-N-(2-methoxyacetyl)anilino)-2-[(2,2-dimethylcyclobutyl)carbamoyl]-3-pyridyl] 2-methoxyacetate], for which the inhibition at 20 ppm in experiment [2] was at least 80%.
Turning to `COc1ccc(Nc2cc(F)cc(F)c2)nc1C(=O)NCC#CC(C)(C)C` [Compound P-28, 6-(3,5-difluoroanilino)-N-(4,4-dimethylpent-2-ynyl)-3-methoxy-pyridine-2-carboxamide], the inhibition at 20 ppm in experiment [3] was at least 80%.
On to `COc1ccc(Nc2cnsc2)nc1C(=O)NCC#CC(C)(C)C` [Compound P-34, N-(4,4-dimethylpent-2-ynyl)-6-(isothiazol-4-ylamino)-3-methoxy-pyridine-2-carboxamide], for which the inhibition at 20 ppm in experiment [3] is at least 80%.
Consider `COc1ccc(NC2CCC2)nc1C(=O)NCC(C)(C)C` [Compound P-41, 6-(cyclobutylamino)-N-(2,2-dimethylpropyl)-3-methoxy-pyridine-2-carboxamide], for which the inhibition at 20 ppm in experiment [3] was at least 80%.
With `COc1ccc(Nc2cc(F)cc(F)c2)nc1C(=O)NCc1cccc2c1OC(F)(F)O2` [Compound P-58, 6-(3,5-difluoroanilino)-N-[(2,2-difluoro-1,3-benzodioxol-4-yl)methyl]-3-methoxy-pyridine-2-carboxamide], the inhibition at 20 ppm in experiment [2] and in experiment [3] was at least 80% throughout.
Consider `COc1ccc(Nc2cc(F)cc(F)c2)nc1C(=O)NCC1(c2ccc(C(F)(F)F)cn2)CC1` [Compound P-72, 6-(3,5-difluoroanilino)-3-methoxy-N-[[1-[5-(trifluoromethyl)-2-pyridyl]cyclopropyl]methyl]pyridine-2-carboxamide], for which the inhibition at 20 ppm in experiment [2] was at least 80%.
`COc1ccc(Nc2cc(F)cc(F)c2)nc1C(=O)NC1CCN(S(=O)(=O)C(C)C)CC1` [Compound P-77, 6-(3,5-difluoroanilino)-N-(1-isopropylsulfonyl-4-piperidyl)-3-methoxy-pyridine-2-carboxamide]: the inhibition at 20 ppm in experiment [2] is at least 80%.
With `COc1ccc(Nc2cnsc2)nc1C(=O)NCc1ccc(Oc2ccccc2)cc1` [Compound P-81, 6-(isothiazol-4-ylamino)-3-methoxy-N-[(4-phenoxyphenyl)methyl]pyridine-2-carboxamide], the inhibition at 20 ppm in experiment [2] and in experiment [1] was at least 80% each time.
On to `COc1ccc(Nc2cnsc2)nc1C(=O)NCc1cccc2c1OC(F)(F)O2` [Compound P-82, N-[(2,2-difluoro-1,3-benzodioxol-4-yl)methyl]-6-(isothiazol-4-ylamino)-3-methoxy-pyridine-2-carboxamide], for which the inhibition at 20 ppm in experiment [2] and in experiment [1] was at least 80% in each case.
Take `COc1ccc(Nc2cnsc2)nc1C(=O)NCC1(C)CCOC2(CCC2)C1` (centres unmarked) [Compound P-84, 6-(isothiazol-4-ylamino)-3-methoxy-N-[(8-methyl-5-oxaspiro[3.5]nonan-8-yl)methyl]pyridine-2-carboxamide]: in experiment [2], the inhibition at 20 ppm is at least 80%.
On the same count and under the same terms, with `COc1ccc(Nc2cnsc2)nc1C(=O)NCCc1ccc(OC(F)(F)F)cc1` [Compound P-85, 6-(isothiazol-4-ylamino)-3-methoxy-N-[2-[4-(trifluoromethoxy)phenyl]ethyl]pyridine-2-carboxamide] the figure was at least 80%; with `CC(C)(C)CNC(=O)c1nc(Nc2cc(F)nc(F)c2)ccc1O` [Compound P-100, 6-[(2,6-difluoro-4-pyridyl)amino]-N-(2,2-dimethylpropyl)-3-hydroxy-pyridine-2-carboxamide], at least 80%; with `COc1cc(Nc2cc(F)cc(F)c2)nc(C(=O)NC2CCC2(C)C)c1` (centres unmarked) [Compound P-101, 6-(3,5-difluoroanilino)-N-(2,2-dimethylcyclobutyl)-4-methoxy-pyridine-2-carboxamide], at least 80%.
Consider `CC(C)(C)CNC(=O)c1nc(Nc2cc(F)nc(F)c2I)ccc1O` [Compound P-106, 6-[(2,6-difluoro-3-iodo-4-pyridyl)amino]-N-(2,2-dimethylpropyl)-3-hydroxy-pyridine-2-carboxamide], for which, in experiment [1], the inhibition at 20 ppm is at least 80%.
As to `COc1ccc(Nc2cc(F)cc(F)c2)nc1C(=O)NCc1cc(C(F)(F)F)cc(C(F)(F)F)c1` [Compound P-115, N-[[3,5-bis(trifluoromethyl)phenyl]methyl]-6-(3,5-difluoroanilino)-3-methoxy-pyridine-2-carboxamide], the inhibition at 20 ppm in experiment [3] was at least 80%.
As for `COc1ccc(Nc2cc(Cl)cc(Cl)c2)nc1C(=O)NCC(C)(C)C` [Compound P-130, 6-(3,5-dichloroanilino)-N-(2,2-dimethylpropyl)-3-methoxy-pyridine-2-carboxamide], the inhibition at 20 ppm in experiment [2] and in experiment [3] was at least 80% in each case.
On to `COc1ccc(Nc2cc(F)c(Cl)c(F)c2)nc1C(=O)NCC(C)(C)C` [Compound P-135, 6-(4-chloro-3,5-difluoro-anilino)-N-(2,2-dimethylpropyl)-3-methoxy-pyridine-2-carboxamide], for which the inhibition at 20 ppm in experiment [3] is at least 80%.
For the compound `COc1ccc(Nc2ccc(C)cc2)nc1C(=O)NCC(C)(C)C` [Compound P-141, N-(2,2-dimethylpropyl)-3-methoxy-6-(4-methylanilino)pyridine-2-carboxamide], the inhibition at 20 ppm in experiment [2] is at least 80%.
On the same count and under the same terms, the same measure for `COc1ccc(Nc2ccc(Cl)c(Cl)c2)nc1C(=O)NC(C)(C)C` [Compound P-149, N-tert-butyl-6-(3,4-dichloroanilino)-3-methoxy-pyridine-2-carboxamide]: at least 80%; for `COc1ccc(Nc2ccc(C(F)(F)F)c(F)c2)nc1C(=O)NC(C)(C)C` [Compound P-154, N-tert-butyl-6-[3-fluoro-4-(trifluoromethyl)anilino]-3-methoxy-pyridine-2-carboxamide]: at least 80%.
For `COc1ccc(Nc2ccc(Cl)c(C)c2)nc1C(=O)NC(C)(C)C` [Compound P-158, N-tert-butyl-6-(4-chloro-3-methyl-anilino)-3-methoxy-pyridine-2-carboxamide], in experiment [2], the inhibition at 20 ppm was at least 80%.
`COc1ccc(Nc2ccc(C)cc2)nc1C(=O)NC(C)(C)C` [Compound P-161, N-tert-butyl-3-methoxy-6-(4-methylanilino)pyridine-2-carboxamide]: in experiment [2], the inhibition at 20 ppm is at least 80%.
Same read-out and setting: with `COc1ccc(Nc2cncc(C(F)(F)F)c2)nc1C(=O)NC(C)(C)C` [Compound P-163, N-tert-butyl-3-methoxy-6-[[5-(trifluoromethyl)-3-pyridyl]amino]pyridine-2-carboxamide] the figure was at least 80%; with `COc1ccc(Nc2ccc3cnn(Cc4ccccc4)c3c2)nc1C(=O)NC(C)(C)C` [Compound P-165, 6-[(1-benzylindazol-6-yl)amino]-N-tert-butyl-3-methoxy-pyridine-2-carboxamide], at least 80%.
For the compound `COC(=O)N(c1cc(F)cc(F)c1)c1ccc(OC)c(C(=O)NC2CCC2(C)C)n1` (centres unmarked) [Compound P-191, methyl N-(3,5-difluorophenyl)-N-[6-[(2,2-dimethylcyclobutyl)carbamoyl]-5-methoxy-2-pyridyl]carbamate], the inhibition at 20 ppm in experiment [2] and in experiment [3] was at least 80% each time.
